Source: patent publication US20110053849A1 (priority 2006, published 2011)

What was measured:
LITAF = assay: Western blot of LPS-induced LITAF gene expression in human monocytes; assay type: cell-based; conditions: 0.1 μg/ml E. coli LPS 3 hours, then peptide 16 hours, FIG. 8B lane 5
Protocol: Western blot analysis. […] Cells were then incubated overnight in RPMI 1640 medium with 10% FBS at 37° C., in a humidified atmosphere containing 5% CO2. The proteins from the treated cells were extracted with lysis buffer (Promega) plus a cocktail of […] (Sigma) following the manufacturer's instructions and suspended in SDS sample buffer, heated at 95° C. for 5 min, then applied to SDS-polyacrylamide gels and detected by Western blotting.
(§1) To further examine the effects of pep12 on LPS-induced LITAF gene expression and LITAF-dependent TNF-α production, analyses of Western blot and ELISA were performed. Human monocytes (1×10^6) were stimulated with 0.1 μg/ml E. coli LPS for 3 hours and washed with PBS prior to treatment with peptides for 16 hours with either pep12 (#5) or pepSC as control (#4) using a Chariot kit (Active motif, Carlsbad, Calif.) or transfected with no DNA (#1) or with pGLP700 DNA (#2) as negative controls or with p53-1 DNA (#3) as a positive control. The cells were incubated in appropriate medium at 37° C., 5% CO2 overnight. The supernatants from cell cultures were measured by ELISA (Abraxis, Warminster, Pa.) and the extracts were detected by Western blot with antibodies against LITAF and actin (as a control).

TNF-α = assay: ELISA of LPS-induced TNF-α production in human monocytes; assay type: cell-based; conditions: 0.1 μg/ml E. coli LPS 3 hours, then peptide 16 hours, FIG. 8A
Protocol: ELISA. Human monocytes (1×10^6) were stimulated with 0.1 μg/ml E. coli LPS for 3 hrs, washed with PBS, then further treated with peptides by Chariot kit (Active Motif, Carlsbad, Calif.). Cells were then incubated overnight in RPMI 1640 medium supplemented with 10% FBS at 37° C., in a humidified atmosphere containing 5% CO2. Culture supernatants were harvested and centrifuged at 1,500×g to remove cell debris, then concentrations of human TNF-α in the supernatant of each treated or untreated control cell condition were measured by ELISA (Abraxis, Warminster, Pa.). The ELISA immunoreactivity was quantified using a VerSaDoc Imaging System (BIO-RAD) and graphed.
as §1, with “The cells were incubated in appropriate medium at 37° C., 5% CO2 overnight.” left out

LITAF promoter = assay: Luciferase reporter assay of LITAF promoter activity in p53-null H1299 cells; assay type: cell-based, human; conditions: for Luciferase activity with peptide alone: peptide alone without pGLP700, FIG. 7 #5 and #6
Protocol: Luciferase assay. […] Cells were then incubated overnight in appropriate media (DMEM or RPMI 1640)+10% FBS at 37° C., in a humidified atmosphere containing 5% CO2. The β-galactosidase gene was included in all transfections. Cells were harvested and the luciferase activity of each lysate was measured (Turner Designs luminometer model TD-20/20) using a commercial kit (luciferase reporter assay system, Promega) according to the protocol provided by the manufacturer. Finally, the data were normalized to β-galactosidase expression.
The promoter activity of pGLP700 alone was assigned the maximal value of 100%. […] Deletions, indicated by ̂, correspond to aa 101-167 in construct A12, aa 167-234 in B1, aa 235-300 in C6 and aa 156-178 in D10. Construct p53LFB12 contained only 7 aa (KQSQHMT [SEQ ID NO: 1]) from the region (aa 164-170).
The proteins extracted from each transfection of construct plus pGLP700 compared to the transfection of pGLP700 alone in p53-null H1299 cells were measured by luciferase assay. Triplicate assays were performed. […] Construct C6, containing aa 167 and its flanking sequences, reduced LITAF promoter activity to 22% of control even though it lacked aa 235-300.
Furthermore, short peptides (pep12) that contain 7 residues (aa 164-170) (KQSQHMT [SEQ ID NO: 1]) corresponding to p53LFB12 and another peptide (pepSC) with reverse sequence of pep12 as a negative control, were synthesized and analyzed using the luciferase assay. Cultures of p53-null H1299 cells (5×10^6) were transfected with pGLP700 (#2-4, #7-12), pGLP550 (#13 and 14) or pGLP500 (#15 and 16) plus p53LFB12 (#4) or plus 12REV (#3) as control using Lipofactamine 2000 (Invitrogen) for 3 hours, washed with PBS and further transfected with peptide, 10 μg/ml (#10, 12, 14 and 16), then cells were incubated in appropriate medium at 37° C. overnight. Luciferase activities of the lysates from each culture of treated cells were measured. The extracts from untreated (#1), pepSC alone (#5), pep12 alone (#6), pGLP700 alone (#2 and 11, pGLP550 alone (#13) or pGLP500 alone (#15) were used as controls. Triplicate assays were performed.

human cytokines = assay: Bioplex human monocyte cytokine assay; assay type: cell-based; conditions: E. coli LPS + pep12 (10 µg or 100 υg)
Protocol: This assay was performed to determine the effectiveness of the peptide of the present invention [pep12: SEQ ID NO.: 1] to inhibit various human cytokines. The assay performed was a human monocyte assay well known to those practiced in the art. The kit used here (trade name Bioplex) was supplied by Bio-Rad (Hercules, Calif.). Other commercially available assays are known and suitable for use in the assay described here.
Bar (1) is the carrier solution alone (chariot alone); bar (2) is E. coli LPS stimulant; bar (3) is E. coli LPS+pepSC (scramble peptide); bar (4) is E. coli LPS+pep12 (10 υg); bar (5) is E. coli LPS+pep12 (100 υg). The cytokines tested include Human (Hu) IL-2, Hu Il-5, Hu Il-7, Hu Il-12 Hu Eotaxin, Hu Il-13, Hu-PDGF-β, Hu IL-1β, Hu-15, Hu IFN-γ, Hu IP-10, Hu IL-6, Hu RANTES, Hu TNF-α, Hu Il-1ra and Hu VEGF.

[1] = peptide 10 μg/ml plus pGLP700, FIG. 7 #7 and #10

Substance | LPS-induced LITAF gene expression (LITAF) | LPS-induced TNF-α production, % of control (TNF-α) | LITAF promoter activity (LITAF promoter; pep12 10 μg/ml plus pGLP500, FIG. 7 #16 vs #15) | LITAF promoter activity, % of control (LITAF promoter; pep12 10 μg/ml plus pGLP550, FIG. 7 #14 vs #13) | LITAF promoter activity, % of control (LITAF promoter; pep12 10 μg/ml plus pGLP700, FIG. 7 #12 vs #11) | LITAF promoter activity (untreated pGLP700 #2 = 100%) (LITAF promoter; peptide 0.1 μg/ml plus pGLP700, FIG. 7 #8) | LITAF promoter activity (untreated pGLP700 #2 = 100%) (LITAF promoter; [1]) | Luciferase activity with peptide alone (LITAF promoter) | LITAF promoter activity (untreated pGLP700 #2 = 100%) (LITAF promoter; peptide plus pGLP700, FIG. 7 #9, concentration not clearly printed) | Concentration of active cytokine: Hu IL-13 (human cytokines) | Concentration of active cytokine: Hu PDGF-β (human cytokines) | Concentration of active cytokine: Hu RANTES (human cytokines) | Concentration of active cytokine: IL-2, IL-5, IL-7, IL-12, Eotaxin, IL-1β, IL-15, IFN-γ, IP-10, IL-6, TNF-α, IL-1ra, VEGF (human cytokines; FIGS. 9A-9C)
KQSQHMT [pep12] | inhibition of LPS-induced LITAF gene expression | ≤ 70% | did not affect LITAF promoter activity | 23% | 15% | 66% | 15% | 2.3% | 40% | only minor reductions | only minor reductions | only minor reductions | significant reduction
SKMQQTH [pepSC, reference compound] |  | could not affect LPS-induced TNF-α secretion |  |  |  |  | 95% | 1.5% |  |  |  |  | 
